PMC6001238, “Iterative Chemical Engineering of Vancomycin Leads to Novel Vancomycin Analogs With a High in Vitro Therapeutic Index” (Frontiers in Microbiology, 2018)
Converted amounts (≈) assume the structure as drawn. Like-named read-outs stand apart in the source and are kept apart here.

Assays:
E. faecalis VSE 1 = experiment: MIC, broth microdilution, vancomycin-sensitive E. faecalis (VSE 1); format: cell-based, Enterococcus faecalis; conditions: for MIC: Enterococcus faecalis VSE 1 (vancomycin-sensitive), read-out: MIC; for MIC-fold improvement vs. vancomycin: VSE 1, ratio of MIC of vancomycin and MIC of analogue
Outline: (§1)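 Susceptibility was scored by broth microdilution (CLSI). In one instance each vancomycin analog or control antibiotic was tested in the presence of vancomycin, 10 μM final, and ultrapure water plus non-inoculated broth were included as controls.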

E. faecalis VRE 53 = experiment: MIC, broth microdilution, vancomycin-resistant E. faecalis VRE 53 (VanA); format: cell-based, Enterococcus faecalis; conditions: for MIC: Enterococcus faecalis VRE 53 (vancomycin-resistant), read-out: MIC; for MIC-fold improvement vs. vancomycin: VRE 53, ratio of MIC of vancomycin and MIC of analogue
Outline: as §1

E. faecalis VRE 6 = experiment: MIC, broth microdilution, vancomycin-resistant E. faecalis VRE 6 (VanA); format: cell-based, Enterococcus faecalis; conditions: for MIC: Enterococcus faecalis VRE 6 (vancomycin-resistant), read-out: MIC; for MIC-fold improvement vs. vancomycin: VRE 6, ratio of MIC of vancomycin and MIC of analogue
Outline: as §1

S. aureus VRSA = experiment: MIC, broth microdilution, vancomycin-resistant S. aureus (VRSA); format: cell-based, Staphylococcus aureus; conditions: for MIC: Staphylococcus aureus VRSA, read-out: MIC; for MIC-fold improvement vs. vancomycin: VRSA, ratio of MIC of vancomycin and MIC of analogue
Outline: as §1

MRSA KS2 = experiment: MIC, broth microdilution, MRSA KS2; format: cell-based, Staphylococcus aureus; conditions: for MIC-fold improvement vs. vancomycin: MRSA KS2, ratio of MIC of vancomycin and MIC of analogue; for MIC: Staphylococcus aureus MRSA KS2, read-out: MIC
Outline: as §1

[1] = system: Murine leukemia (L1210) cells; experiment: Cytostatic activity, L1210 cell proliferation; format: cell-based; conditions: mean ± SD of three experiments; highest concentration tested 250 µM; 2 days; read-out: Toxicity (IC50) L1210
Outline: (§2)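 Readout: Coulter cell number after drug exposure at 37°C. Durations differ by line (L1210 2 days; CEM 3 days; HeLa 4 days). Stock suspension 300,000–500,000 cells/mL, diluted by mixing with compound. Endpoint: IC50 vs negative control.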

[2] = system: S. aureus VSSA (ATCC 6538); experiment: MIC, broth microdilution, vancomycin-sensitive S. aureus (VSSA/MSSA, ATCC 6538); format: cell-based, Staphylococcus aureus; conditions: for MIC: Staphylococcus aureus VSSA, read-out: MIC; for MIC-fold improvement vs. vancomycin: VSSA, ratio of MIC of vancomycin and MIC of analogue
Outline: as §1

MRSA KS1 = experiment: MIC, broth microdilution, MRSA KS1; format: cell-based, Staphylococcus aureus; conditions: for MIC-fold improvement vs. vancomycin: MRSA KS1, ratio of MIC of vancomycin and MIC of analogue; for MIC: Staphylococcus aureus MRSA KS1, read-out: MIC
Outline: as §1

E. faecalis VRE 29 = experiment: MIC, broth microdilution, vancomycin-resistant E. faecalis VRE 29 (VanA); format: cell-based, Enterococcus faecalis; conditions: for MIC: Enterococcus faecalis VRE 29 (vancomycin-resistant), read-out: MIC; for MIC-fold improvement vs. vancomycin: VRE 29, ratio of MIC of vancomycin and MIC of analogue
Outline: as §1

[3] = system: human T-lymphocyte (CEM) cells; experiment: Cytostatic activity, CEM cell proliferation; format: cell-based; conditions: mean ± SD of three experiments; highest concentration tested 250 µM; 3 days; read-out: Toxicity (IC50) CEM
Outline: as §2

MRSA KS89 = experiment: MIC, broth microdilution, MRSA KS89; format: cell-based, Staphylococcus aureus; conditions: for MIC-fold improvement vs. vancomycin: ratio of MIC of vancomycin and MIC of analogue; for MIC: read-out: MIC
Outline: as §1

MRSA KS6 = experiment: MIC, broth microdilution, MRSA KS6; format: cell-based, Staphylococcus aureus; conditions: for MIC-fold improvement vs. vancomycin: MRSA KS6, ratio of MIC of vancomycin and MIC of analogue; for MIC: Staphylococcus aureus MRSA KS6, read-out: MIC
Outline: as §1

E. faecalis VRE 37 = experiment: MIC, broth microdilution, vancomycin-resistant E. faecalis VRE 37 (VanA); format: cell-based, Enterococcus faecalis; conditions: for MIC: Enterococcus faecalis VRE 37 (vancomycin-resistant), read-out: MIC; for MIC-fold improvement vs. vancomycin: VRE 37, ratio of MIC of vancomycin and MIC of analogue
Outline: as §1

[4] = system: L1210, CEM and HeLa cell lines; experiment: Cytostatic activity, average or summary over L1210, CEM and HeLa; format: cell-based; conditions: average of L1210, CEM and HeLa; read-out: Toxicity (IC50) Average
Outline: as §2

[5] = system: human cervix carcinoma (HeLa) cells; experiment: Cytostatic activity, HeLa cell proliferation; format: cell-based; conditions: mean ± SD of three experiments; highest concentration tested 250 µM; 4 days; read-out: Toxicity (IC50) HeLa
Outline: as §2

S. aureus VISA/HIP5827 = experiment: MIC, broth microdilution, vancomycin-intermediate S. aureus VISA HIP5827; format: cell-based, Staphylococcus aureus; conditions: for MIC: Staphylococcus aureus VISA/HIP5827, read-out: MIC; for MIC-fold improvement vs. vancomycin: VISA/HIP5827, ratio of MIC of vancomycin and MIC of analogue
Outline: as §1

SMILES	MIC (E. faecalis VSE 1) [µM]	MIC-fold improvement vs. vancomycin (E. faecalis VSE 1)	MIC (E. faecalis VRE 53) [µM]	MIC-fold improvement vs. vancomycin (E. faecalis VRE 53)	MIC (E. faecalis VRE 6) [µM]	MIC-fold improvement vs. vancomycin (E. faecalis VRE 6)	MIC (S. aureus VRSA) [µM]	MIC-fold improvement vs. vancomycin (S. aureus VRSA)	MIC-fold improvement vs. vancomycin (MRSA KS2)	MIC (MRSA KS2) [µM]	IC50 [1] [µM]	MIC [2] [µM]	MIC-fold improvement vs. vancomycin [2]	MIC-fold improvement vs. vancomycin (MRSA KS1)	MIC (MRSA KS1) [µM]	MIC (E. faecalis VRE 29) [µM]	MIC-fold improvement vs. vancomycin (E. faecalis VRE 29)	IC50 [3] [µM]	MIC-fold improvement vs. vancomycin (MRSA KS6)	MIC (MRSA KS6) [µM]	further results
CCCCCCn1cc(-c2ccc(NC(=O)CNC(=O)C3NC(=O)C4NC(=O)C(NC(=O)C5NC(=O)C(CC(N)=O)NC(=O)C(NC(=O)C(CC(C)C)NC)C(O)c6ccc(c(Cl)c6)Oc6cc5cc(c6OC5OC(CO)C(O)C(O)C5OC5CC(C)(N)C(O)C(C)O5)Oc5ccc(cc5Cl)C4O)c4ccc(O)c(c4)-c4c(O)cc(O)cc43)cc2)nn1 (centres unmarked) [Vanc-92]	0.10 (≈ 0.173 µg/mL)	16	25 (≈ 43.3 µg/mL)	16	6.25 (≈ 10.8 µg/mL)	32	0.78 (≈ 1.35 µg/mL)	128	4	0.20 (≈ 0.347 µg/mL)	95 ± 75	0.20 (≈ 0.347 µg/mL)	4	4	0.20 (≈ 0.347 µg/mL)	6.25 (≈ 10.8 µg/mL)	64	31 ± 7	4	0.20 (≈ 0.347 µg/mL)	MIC-fold improvement vs. vancomycin (MRSA KS89; MRSA KS8 (head; KS89 in title)): 4; MIC (MRSA KS89; Staphylococcus aureus MRSA KS8 (head; KS89 in title)): 0.20 µM (≈ 0.347 µg/mL); MIC (E. faecalis VRE 37): 6.25 µM (≈ 10.8 µg/mL); MIC-fold improvement vs. vancomycin (E. faecalis VRE 37): 64; IC50 [4]: 75 µM; IC50 [5]: 98 ± 12 µM; MIC (S. aureus VISA/HIP5827): 0.78 µM (≈ 1.35 µg/mL); MIC-fold improvement vs. vancomycin (S. aureus VISA/HIP5827): 8
CN[C@H](CC(C)C)C(=O)N[C@H]1C(=O)N[C@@H](CC(N)=O)C(=O)N[C@H]2C(=O)N[C@H]3C(=O)N[C@H](C(=O)N[C@H](C(=O)NCC(=O)Nc4ccc(C#Cc5ccccc5)cc4)c4cc(O)cc(O)c4-c4cc3ccc4O)[C@H](O)c3ccc(c(Cl)c3)Oc3cc2cc(c3O[C@@H]2O[C@H](CO)[C@@H](O)[C@H](O)[C@H]2O[C@H]2C[C@](C)(N)[C@H](O)[C@H](C)O2)Oc2ccc(cc2Cl)[C@H]1O [Vanc-38]	0.20 (≈ 0.336 µg/mL)	8	3.13 (≈ 5.26 µg/mL)	128	0.39 (≈ 0.656 µg/mL)	513	0.78 (≈ 1.31 µg/mL)	128	4	0.20 (≈ 0.336 µg/mL)	8 ± 3.1	0.05 (≈ 0.0841 µg/mL)	16	4	0.20 (≈ 0.336 µg/mL)	1.56 (≈ 2.62 µg/mL)	256	4.4 ± 0.5	4	0.20 (≈ 0.336 µg/mL)	MIC-fold improvement vs. vancomycin (MRSA KS89; MRSA KS8): 4; MIC (MRSA KS89; Staphylococcus aureus MRSA KS8): 0.20 µM (≈ 0.336 µg/mL); MIC (E. faecalis VRE 37): 3.13 µM (≈ 5.26 µg/mL); MIC-fold improvement vs. vancomycin (E. faecalis VRE 37): 128; IC50 [4]: 12 µM; IC50 [5]: 24 ± 1 µM; MIC (S. aureus VISA/HIP5827): 0.05 µM (≈ 0.0841 µg/mL); MIC-fold improvement vs. vancomycin (S. aureus VISA/HIP5827): 128
